Patent US9856284B2, “Solid forms of a thiophosphoramidate nucleotide prodrug” (Alios BioPharma, Inc., priority 2012, dated 2018)

Test system: subgenomic HCV replicon in Huh-7 cells
Assay: HCV replicon assay
Format: cell-based
Conditions: Huh-7 cells with subgenomic HCV replicon, luciferase (LUC) reporter, 72 hours, 1% DMSO; read-out: EC50 (50% inhibitory concentration) in HCV replicon cells
Method: Huh-7 cells containing the self-replicating, subgenomic HCV replicon with a stable luciferase (LUC) reporter were cultured in Dulbecco's modified Eagle's medium (DMEM) containing 2 mM L-glutamine and supplemented with 10% heat-inactivated fetal bovine serum (FBS), 1% penicillin-streptomyocin, 1% nonessential amino acids, and 0.5 mg/mL G418.
Determination of 50% inhibitory concentration (EC50) of compounds in HCV replicon cells were performed by the following procedure. On the first day, 5,000 HCV replicon cells were plated per well in a 96-well plate. On the following day, test compounds were solubilized in 100% DMSO to 100× the desired final testing concentration. Each compound was then serially diluted (1:3) up to 9 different concentrations. Compounds in 100% DMSO are reduced to 10% DMSO by diluting 1:10 in cell culture media. The compounds were diluted to 10% DMSO with cell culture media, which were used to dose the HCV replicon cells in 96-well format. The final DMSO concentration was 1%. The HCV replicon cells were incubated at 37° C. for 72 hours. At 72 hours, cells were processed when the cells are still subconfluent. Compounds that reduce the LUC signal are determined by Bright-Glo Luciferase Assay (Promega, Madison, Wis.). Percent Inhibition was determined for each compound concentration in relation to the control cells (untreated HCV replicon) to calculate the EC50.

## CC(C)OC(=O)[C@H](C)NP(=S)(OC[C@H]1O[C@@H](n2ccc(=O)[nH]c2=O)[C@](C)(O)[C@@H]1O)Oc1ccccc1 (stereo partly drawn) [Compound 1, 2′-C-methyluridine-5′-(O-phenyl-N—(S)-1-(isopropoxycarbonyl)ethyl)thiophosphoramidate]
  EC50: < 1 µM
